Data as given in the supplement of paper PMC10307832.

Key:
Test in all cases: relative viability (nuclei count vs DMSO), 5 days (fraction); higher = more cells survive
[1] = tested on: NCI-H650
Method in brief: (§1)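 Lung cancer cell lines, seeded in 1536-well plates, were treated the following day by pin tool with a single drug or with five library-drug doses (not always all listed) in √10 steps on top of a fixed anchor-drug dose. Cells were fixed and nuclei stained in one step after 5 days, and nuclei were counted. Relative viability is the nuclei count for treated wells divided by that for vehicle wells, reported as medians of duplicate plates.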

[2] = tested on: NCI-H2347
Method in brief: as §1

[3] = tested on: EMC-BAC-2
Method in brief: as §1

[4] = tested on: LOU-NH91
Method in brief: as §1

[5] = tested on: HCC-44
Method in brief: as §1

[6] = tested on: NCI-H23
Method in brief: as §1

[7] = tested on: NCI-H727
Method in brief: as §1

[8] = tested on: HARA
Method in brief: as §1

[9] = tested on: NCI-H2087
Method in brief: as §1

[10] = tested on: NCI-H1993
Method in brief: as §1

[11] = tested on: NCI-H2126
Method in brief: as §1

CC(=O)O[C@@]12CO[C@@H]1C[C@H](O)[C@@]1(C)C(=O)[C@H](O)C3=C(C)[C@@H](OC(=O)[C@H](O)[C@@H](NC(=O)OC(C)(C)C)c4ccccc4)C[C@@](O)([C@@H](OC(=O)c4ccccc4)[C@H]21)C3(C)C [Docetaxel] + COc1cccc2cc(-c3nc([C@H]4CC[C@H](C(=O)O)CC4)n4ncnc(N)c34)[nH]c12 [OSI-027] (partner 0.5 µM)
relative viability ([1]; first compound 0.0002 µM): 0.436
relative viability ([1]; first compound 0.000632 µM): 0.375
relative viability ([1]; first compound 0.002 µM): 0.266
relative viability ([1]; first compound 0.006325 µM): 0.265
relative viability ([1]; first compound 0.02 µM): 0.181
relative viability ([2]; first compound 0.0002 µM): 0.435
relative viability ([2]; first compound 0.000632 µM): 0.382
relative viability ([2]; first compound 0.002 µM): 0.329
relative viability ([2]; first compound 0.006325 µM): 0.282
relative viability ([2]; first compound 0.02 µM): 0.249
relative viability ([3]; first compound 0.0002 µM): 0.424
relative viability ([3]; first compound 0.000632 µM): 0.327
relative viability ([3]; first compound 0.002 µM): 0.257
relative viability ([3]; first compound 0.006325 µM): 0.25
relative viability ([3]; first compound 0.02 µM): 0.172
relative viability ([4]; first compound 0.0002 µM): 0.698
relative viability ([4]; first compound 0.000632 µM): 0.733
relative viability ([4]; first compound 0.002 µM): 0.466
relative viability ([4]; first compound 0.006325 µM): 0.344
relative viability ([4]; first compound 0.02 µM): 0.3
relative viability ([5]; first compound 0.0002 µM): 0.533
relative viability ([5]; first compound 0.000632 µM): 0.591
relative viability ([5]; first compound 0.002 µM): 0.269
relative viability ([5]; first compound 0.006325 µM): 0.294
relative viability ([5]; first compound 0.02 µM): 0.16
relative viability ([6]; first compound 0.0002 µM): 0.804
relative viability ([6]; first compound 0.000632 µM): 0.587
relative viability ([6]; first compound 0.002 µM): 0.238
relative viability ([6]; first compound 0.006325 µM): 0.168
relative viability ([6]; first compound 0.02 µM): 0.107
relative viability ([7]; first compound 0.0002 µM): 0.804
relative viability ([7]; first compound 0.000632 µM): 0.615
relative viability ([7]; first compound 0.002 µM): 0.415
relative viability ([7]; first compound 0.006325 µM): 0.544
relative viability ([7]; first compound 0.02 µM): 0.361
relative viability ([8]; first compound 0.0002 µM): 0.341
relative viability ([8]; first compound 0.000632 µM): 0.159
relative viability ([8]; first compound 0.002 µM): 0.0997
relative viability ([8]; first compound 0.006325 µM): 0.106
relative viability ([8]; first compound 0.02 µM): 0.0539
relative viability ([9]; first compound 0.0002 µM): 0.464
relative viability ([9]; first compound 0.000632 µM): 0.359
relative viability ([9]; first compound 0.002 µM): 0.142
relative viability ([9]; first compound 0.006325 µM): 0.113
relative viability ([9]; first compound 0.02 µM): 0.111
relative viability ([10]; first compound 0.0002 µM): 0.556
relative viability ([10]; first compound 0.000632 µM): 0.616
relative viability ([10]; first compound 0.002 µM): 0.6
relative viability ([10]; first compound 0.006325 µM): 0.501
relative viability ([10]; first compound 0.02 µM): 0.414
relative viability ([11]; first compound 0.0002 µM): 0.742
relative viability ([11]; first compound 0.000632 µM): 0.622
relative viability ([11]; first compound 0.002 µM): 0.281
relative viability ([11]; first compound 0.006325 µM): 0.297
relative viability ([11]; first compound 0.02 µM): 0.221
